Reference: patent US4988687A, “Cephalosporin derivatives, and antibacterial agents” (priority 1986, dated 1991)
In brackets after ≈: the same amount, converted by molar mass. Like-named read-outs stand apart in the source and are kept apart here.

Tests used:
S. aureus 209P NIHJ-JC1 = experiment: agar plate dilution method, MIC against S. aureus 209P NIHJ-JC1; type: cell-based; conditions: Staphylococcus aureus, read-out: Minimum Inhibitory Concentration (MIC)
Procedure: (§1) The in vitro antibacterial activities of the compounds of the present invention against various microorganisms, were measured by the following agar plate dilution method. One platinum loopfull of each test microorganism incubated overnight in Mueller Hinton broth, was inoculated to Mueller Hinton agar (inoculum size: 10^6 CFU/ml) Such culture media containing various antibiotics in various concentrations were prepared After incubation at 37° C. for 16 hours, the minimum inhibitory concentrations (MIC: μg/ml) were measured. As comparative compounds, cefotaxime, oeftazidime and the compounds disclosed in Example 2 of Japanese Unexamined Patent Publication No. 215690/1985 e.g. sodium 7-[2-(2-aminothiazol-4-yl)-2-ethoxyiminoacetamido]-3-(1-carboxylatemethylpyridinio-4-yl)thiomethyl-3-cephem-4-carboxylate (hereinafter referred to simply as "Reference Example A") were employed.

S. aureus JS1 = experiment: agar plate dilution method, MIC against S. aureus JS1; type: cell-based; conditions: Staphylococcus aureus; S. aureus JS1 (methicilline resistant; lactamase-producing strain); 10^6 CFU/ml, 37° C., 16 hours; read-out: Minimum Inhibitory Concentration (MIC)
Procedure: as §1

S. aureus BB5703 = experiment: agar plate dilution method, MIC against S. aureus BB5703; type: cell-based; conditions: Staphylococcus aureus, read-out: Minimum Inhibitory Concentration (MIC)
Procedure: as §1

S. epidermidis IAM12012 = experiment: agar plate dilution method, MIC against S. epidermidis IAM12012; type: cell-based; conditions: Staphylococcus epidermidis, read-out: Minimum Inhibitory Concentration (MIC)
Procedure: as §1

M. luteus ATCC9341 = experiment: agar plate dilution method, MIC against M. luteus ATCC9341; type: cell-based; conditions: Micrococcus luteus, ATCC9341, 16 h, read-out: Minimum Inhibitory Concentration (MIC)
Procedure: as §1

C. freundii GN346/16 = experiment: agar plate dilution method, MIC against C. freundii GN346/16; type: cell-based; conditions: Citrobacter freundii, read-out: Minimum Inhibitory Concentration (MIC)
Procedure: as §1

E. coli NIHJ JC2 = experiment: agar plate dilution method, MIC against E. coli NIHJ JC2; type: cell-based; conditions: Escherichia coli, read-out: Minimum Inhibitory Concentration (MIC)
Procedure: as §1

E. coli CSH2 (RK1) = experiment: agar plate dilution method, MIC against E. coli CSH2 (RK1); type: cell-based; conditions: Escherichia coli, 16 h, read-out: Minimum Inhibitory Concentration (MIC)
Procedure: as §1

K. pneumoniae PCI-602 = experiment: agar plate dilution method, MIC against K. pneumoniae PCI-602; type: cell-based; conditions: Klebsiella pneumoniae, read-out: Minimum Inhibitory Concentration (MIC)
Procedure: as §1

E. coli CSH(RE45) = experiment: agar plate dilution method, MIC against E. coli CSH(RE45); type: cell-based; conditions: Escherichia coli, 16 h, read-out: Minimum Inhibitory Concentration (MIC)
Procedure: as §1

K. oxytoca GN10650 = experiment: agar plate dilution method, MIC against K. oxytoca GN10650; type: cell-based; conditions: Klebsiella oxytoca; K. oxytoca GN10650 (lactamase-producing strain); 10^6 CFU/ml, 37° C., 16 hours; read-out: Minimum Inhibitory Concentration (MIC)
Procedure: as §1

K. pneumoniae No. 42 = experiment: agar plate dilution method, MIC against K. pneumoniae No. 42; type: cell-based; conditions: Klebsiella pneumoniae; K. pneumoniae No. 42 (lactamase-producing strain); 10^6 CFU/ml, 37° C., 16 hours; read-out: Minimum Inhibitory Concentration (MIC)
Procedure: as §1

P. vulgaris HX-19 = experiment: agar plate dilution method, MIC against P. vulgaris HX-19; type: cell-based; conditions: Proteus vulgaris, read-out: Minimum Inhibitory Concentration (MIC)
Procedure: as §1

P. vulgaris No. 33 = experiment: agar plate dilution method, MIC against P. vulgaris No. 33; type: cell-based; conditions: Proteus vulgaris, read-out: Minimum Inhibitory Concentration (MIC)
Procedure: as §1

S. marcescens IAM 1184 = experiment: agar plate dilution method, MIC against S. marcescens IAM 1184; type: cell-based; conditions: Serratia marcescens, read-out: Minimum Inhibitory Concentration (MIC)
Procedure: as §1

C. freundii GN346 = experiment: agar plate dilution method, MIC against C. freundii GN346; type: cell-based; conditions: Citrobacter freundii; C. freundii GN346 (lactamase-producing strain); 10^6 CFU/ml, 37° C., 16 hours; read-out: Minimum Inhibitory Concentration (MIC)
Procedure: as §1

E. cloacae 963 = experiment: agar plate dilution method, MIC against E. cloacae 963; type: cell-based; conditions: read-out: Minimum Inhibitory Concentration (MIC)
Procedure: as §1

E. cloacae Nek 39 = experiment: agar plate dilution method, MIC against E. cloacae Nek 39; type: cell-based; conditions: Enterobacter cloacae, NEK39; E. cloacae Nek 39 (lactamase-producing strain); 10^6 CFU/ml, 37° C., 16 hours; read-out: Minimum Inhibitory Concentration (MIC)
Procedure: as §1

E. coli GN5482 = experiment: agar plate dilution method, MIC against E. coli GN5482; type: cell-based; conditions: Escherichia coli; E. coli GN5482 (lactamase-producing strain); 10^6 CFU/ml, 37° C., 16 hours; read-out: Minimum Inhibitory Concentration (MIC)
Procedure: as §1

M. morganii GN5407 = experiment: agar plate dilution method, MIC against M. morganii GN5407; type: cell-based; conditions: Morganella morganii; M. morganii GN5407 (lactamase-producing strain); 10^6 CFU/ml, 37° C., 16 hours; read-out: Minimum Inhibitory Concentration (MIC)
Procedure: as §1

S. marcescens No. 16-2 = experiment: agar plate dilution method, MIC against S. marcescens No. 16-2; type: cell-based; conditions: Serratia marcescens, NO.162, 16 h, read-out: Minimum Inhibitory Concentration (MIC)
Procedure: as §1

Ps. aeruginosa IFO3445 = experiment: agar plate dilution method, MIC against Ps. aeruginosa IFO3445; type: cell-based; conditions: Pseudomonas aeruginosa, read-out: Minimum Inhibitory Concentration (MIC)
Procedure: as §1

Ps. aeruginosa AK 109 = experiment: agar plate dilution method, MIC against Ps. aeruginosa AK 109; type: cell-based; conditions: Pseudomonas aeruginosa, read-out: Minimum Inhibitory Concentration (MIC)
Procedure: as §1

Ps. aeruginosa AKR17 = experiment: agar plate dilution method, MIC against Ps. aeruginosa AKR17; type: cell-based; conditions: Pseudomonas aeruginosa; Ps. aeruginosa AKR17; 10^6 CFU/ml, 37° C., 16 hours; read-out: Minimum Inhibitory Concentration (MIC)
Procedure: as §1

Ps. cepacia 23 = experiment: agar plate dilution method, MIC against Ps. cepacia 23; type: cell-based, Pseudomonas cepacia; conditions: Burkholderia cepacia, 23, 16 h, read-out: Minimum Inhibitory Concentration (MIC)
Procedure: as §1

Ps. maltophilia GN 12873 = experiment: agar plate dilution method, MIC against Ps. maltophilia GN 12873; type: cell-based, Pseudomonas maltophilia; conditions: Stenotrophomonas maltophilia, GN12873; Ps. maltophilia GN 12873 (lactamase-producing strain); 10^6 CFU/ml, 37° C., 16 hours; read-out: Minimum Inhibitory Concentration (MIC)
Procedure: as §1

A. calcoaceticus No. 4 = experiment: agar plate dilution method, MIC against A. calcoaceticus No. 4; type: cell-based; conditions: Acinetobacter calcoaceticus; A. calcoaceticus No. 4; 10^6 CFU/ml, 37° C., 16 hours; read-out: Minimum Inhibitory Concentration (MIC)
Procedure: as §1

[1] = S. aureus BB5703, 10^6 CFU/ml, 37° C., 16 hours
[2] = C. freundii GN346/16, 10^6 CFU/ml, 37° C., 16 hours
[3] = P. vulgaris No. 33 (lactamase-producing strain), 10^6 CFU/ml, 37° C., 16 hours
[4] = Enterobacter cloacae, 963, 16 h

SMILES | MIC (S. aureus 209P NIHJ-JC1; 16 h) | MIC (S. aureus JS1) | MIC (S. aureus BB5703; [1]) | MIC (S. epidermidis IAM12012; IAM12012, 16 h) | MIC (M. luteus ATCC9341) | MIC (C. freundii GN346/16; [2]) | MIC (E. coli CSH2 (RK1)) | MIC (K. pneumoniae PCI-602; PCI602, 16 h) | MIC (E. coli CSH(RE45)) | MIC (K. oxytoca GN10650) | MIC (K. pneumoniae No. 42) | MIC (C. freundii GN346) | MIC (E. cloacae Nek 39) | MIC (E. coli GN5482) | MIC (M. morganii GN5407) | MIC (S. marcescens No. 16-2) | MIC (Ps. aeruginosa AKR17) | MIC (Ps. cepacia 23) | MIC (Ps. maltophilia GN 12873) | MIC (A. calcoaceticus No. 4) | other results
C=C(O/N=C(\C(=O)NC1C(=O)N2C(C(=O)[O-])=C(CSc3cc[n+](CC(=O)O)cc3)CSC12)c1csc(N)n1)C(=O)O (stereo not drawn) [Example 1, 7-[2-(2-aminothiazol-4-yl)-2-(1-carboxy-1-vinyloxyimino)acetamido]-3-(1-carboxymethylpyridinio-4-yl)thiomethyl-4-carboxylate (syn-isomer)] | 3.12 µg/mL (≈ 5.03 µM) | 50 µg/mL (≈ 80.6 µM) | 25 µg/mL (≈ 40.3 µM) | 1.56 µg/mL (≈ 2.51 µM) | 1.56 µg/mL (≈ 2.51 µM) | 0.1 µg/mL (≈ 0.161 µM) | 0.05 µg/mL (≈ 0.0806 µM) | < 0.006 µg/mL | 0.1 µg/mL (≈ 0.161 µM) | 0.2 µg/mL (≈ 0.322 µM) | 0.2 µg/mL (≈ 0.322 µM) | 25 µg/mL (≈ 40.3 µM) | 0.78 µg/mL (≈ 1.26 µM) | 0.2 µg/mL (≈ 0.322 µM) | 0.0125 µg/mL (≈ 0.0201 µM) | 1.56 µg/mL (≈ 2.51 µM) | > 100 µg/mL | 1.56 µg/mL (≈ 2.51 µM) | > 100 µg/mL | 50 µg/mL (≈ 80.6 µM) | MIC (E. coli NIHJ JC2; NIHJJC2, E. coli NIHJ JC2, 10^6 CFU/ml, 37° C., 16 hours): 0.1 µg/mL (≈ 0.161 µM); MIC (P. vulgaris HX-19; HX19, 16 h): < 0.006 µg/mL; MIC (P. vulgaris No. 33; NO.33, 16 h): 0.0125 µg/mL (≈ 0.0201 µM); MIC (S. marcescens IAM 1184; IAM1184, 16 h): < 0.006 µg/mL; MIC (E. cloacae 963; Enterobacter cloacae, E. cloacae 963, 10^6 CFU/ml, 37° C., 16 hours): 0.1 µg/mL (≈ 0.161 µM); MIC (Ps. aeruginosa IFO3445; IFO3445, 16 h): 1.56 µg/mL (≈ 2.51 µM); MIC (Ps. aeruginosa AK 109; AK109, 16 h): 3.12 µg/mL (≈ 5.03 µM)
Nc1nc(/C(=N/OC(C(=O)O)c2ccccc2)C(=O)NC2C(=O)N3C(C(=O)[O-])=C(CSc4cc[n+](CC(=O)O)cc4)CSC23)cs1 (stereo not drawn) [Example 3, disodium 7-[2-(2-aminothiazol-4-yl)-2-(α-carboxylatebenzyloxyimino)acetamide]-3-(1-caboxylatemethylpyridinio-4-yl)thiomethyl-3-cephem-4-carboxylate (syn-isomer)] | 12.5 µg/mL | 50 µg/mL | 25 µg/mL | 6.25 µg/mL | 3.12 µg/mL |  | 0.78 µg/mL | < 0.006 µg/mL | 0.78 µg/mL | 0.78 µg/mL | 1.56 µg/mL | 100 µg/mL | 6.25 µg/mL | 0.78 µg/mL | 0.78 µg/mL | 6.25 µg/mL | > 100 µg/mL | 3.12 µg/mL | > 100 µg/mL | 50 µg/mL | MIC (C. freundii GN346/16; GN346, 16 h): 1.56 µg/mL; MIC (E. coli NIHJ JC2; NIHJJC2, 16 h): 1.56 µg/mL; MIC (P. vulgaris HX-19; HX19, P. vulgaris HX-19, 10^6 CFU/ml, 37° C., 16 hours): 0.0125 µg/mL; MIC (P. vulgaris No. 33; [3]): 0.1 µg/mL; MIC (S. marcescens IAM 1184; IAM1184, S. marcescens IAM 1184, 10^6 CFU/ml, 37° C., 16 hours): 0.39 µg/mL; MIC (E. cloacae 963; [4]): 1.56 µg/mL; MIC (Ps. aeruginosa IFO3445; IFO3445, 16 h): 3.12 µg/mL; MIC (Ps. aeruginosa AK 109; AK109, 16 h): 6.25 µg/mL
Nc1nc(/C(=N/OCc2ccccc2)C(=O)NC2C(=O)N3C(C(=O)[O-])=C(CSc4cc[n+](CC(=O)O)cc4)CSC23)cs1 (stereo not drawn) [Example 2, monosodium 7-[2-(2-aminithiazol-4-yl)-2-benzyloxyiminoacetamide]-3-(1-caboxylatemethylpyridinio-4-yl)thiomethyl-3-cephem-4-carboxylate (syn-isomer)] |  | 50 µg/mL |  |  | 0.025 µg/mL | 0.78 µg/mL | 0.2 µg/mL |  | 0.2 µg/mL | 12.5 µg/mL | 1.56 µg/mL | 25 µg/mL | 6.25 µg/mL | 0.78 µg/mL | 1.56 µg/mL | 12.5 µg/mL | > 100 µg/mL | 12.5 µg/mL | > 100 µg/mL | 25 µg/mL | MIC (S. aureus 209P NIHJ-JC1; S. aureus 209P NIHJ-JC1, 10^6 CFU/ml, Mueller Hinton agar, 37° C., 16 hours): 0.39 µg/mL; MIC (S. aureus BB5703; BB5703, 16 h): 1.56 µg/mL; MIC (S. epidermidis IAM12012; S. epidermidis IAM12012, 10^6 CFU/ml, 37° C., 16 hours): 0.2 µg/mL; MIC (E. coli NIHJ JC2; NIHJJC2, 16 h): 1.56 µg/mL; MIC (K. pneumoniae PCI-602; PCI602, K. pneumoniae PCI-602, 10^6 CFU/ml, 37° C., 16 hours): 0.0125 µg/mL; MIC (P. vulgaris HX-19; HX19, 16 h): < 0.006 µg/mL; MIC (P. vulgaris No. 33; [3]): 1.56 µg/mL; MIC (S. marcescens IAM 1184; IAM1184, 16 h): 1.56 µg/mL; MIC (E. cloacae 963; [4]): 1.56 µg/mL; MIC (Ps. aeruginosa IFO3445; Ps. aeruginosa IFO3445, 10^6 CFU/ml, 37° C., 16 hours): 25 µg/mL; MIC (Ps. aeruginosa AK 109; AK109, Ps. aeruginosa AK 109, 10^6 CFU/ml, 37° C., 16 hours): 25 µg/mL
